IC50 data for 25 molecules are collected here from US8440674B2, “Substituted pyrimidine compounds as RAF inhibitors and methods of use” (Amgen Inc., priority 2005, dated 2013).

The structures appear in SMILES notation. Like-named read-outs stand apart in the source and are kept apart here.

Assay [1] has as its target recombinant HuBraf V600E (Homo sapiens, UniProt P15056, V600E). Put plainly: B-raf Homogenous Time Resolved Fluorescent (HTRF) kinase assay. The class given is biochemical. The settings on record: substrate MEK1, 10 uM ATP; threshold lists; read-out: IC50 for the inhibition of B-raf as measured by the HTRF assay. On the procedure: A Homogeneous Time Resolved Fluorescence (HTRF) kinase assay was established to assay the ability of compounds to inhibit human mutant Braf kinase activity on the substrate MEK1. […] The final concentration of the kinase reaction buffer is 50 mM Tris-HCL pH 7.5, 10 mM MgCl2, 0.5% glucose, 0.5 mM DTT, 0.01% BSA.
The detection reaction proceeds for one hour and is read on a RubyStar (BMG Labtech) counter. IC50s for the test compounds are generated using Excel-XLfit software.

The subject of assay [2] is A375 cells, a human melanoma cell line having the V600E mutant Braf. Put plainly: B-Raf cell-based assay (ratio of phospho-ERK1/2 to total ERK1/2). The settings on record: A-375, 1 h, P-ERK/total ERK, 60 minute incubation, read-out: IC50 for the inhibition of B-raf as measured by the cell-based assay. On the procedure: A cell-based assay was optimized to assay the ability of compounds to inhibit Braf activity in a whole cell context. […] The cell-based assay quantifies the ratio of phospho-ERK1/2 to total ERK1/2 and can thereby assay the cellular inhibition of Braf kinase activity.
A375 cells are plated into 96 well plates and grown to confluence. The cells are then changed into starve media (DMEM/0.1% BSA) for 60 minutes. Compounds in DMSO dose curves are then diluted in starve media and added to cells. […] After a 60 minute incubation the cells are fixed for 20 minutes at room temperature in 4% formaldehyde with 0.1%Triton X-100, protease and phosphatase inhibitors in PBS. The cells are washed four times in PBS then blocked for 60 minutes using a one to one mix of Odyssey blocking buffer (Li-Cor Biosciences, Inc) and PBS. Primary antibodies (rabbit anti-phospho p42/p44 MAPK (P-ERK1/2) from Cell Signaling Technology and mouse anti-ERK2 from Santa Cruz Biotechnology) are diluted in blocking buffer, added to the cells and incubated overnight at 4° C. The cells are then washed four times in PBS/0.1% Tween-20. Secondary antibodies (anti-mouse IRDye 800CW from Rockland, Inc and anti-rabbit AlexaFlour680 from Molecular Probes) are diluted in blocking buffer/0.5% Tween and incubated on cells for 60 minutes. After 4 washes in PBS/0.1% Tween-20 the microplate is scanned on an Odyssey Infrared Imager (Li-Cor Bioscience) which can read the signal given by the two secondary antibodies on their respective channels. The ratio of P-ERK/total ERK is determined and IC50s generated using Excel-XLfit software.

Chain of recombinant HuBraf V600E (P15056 whole entry V600E): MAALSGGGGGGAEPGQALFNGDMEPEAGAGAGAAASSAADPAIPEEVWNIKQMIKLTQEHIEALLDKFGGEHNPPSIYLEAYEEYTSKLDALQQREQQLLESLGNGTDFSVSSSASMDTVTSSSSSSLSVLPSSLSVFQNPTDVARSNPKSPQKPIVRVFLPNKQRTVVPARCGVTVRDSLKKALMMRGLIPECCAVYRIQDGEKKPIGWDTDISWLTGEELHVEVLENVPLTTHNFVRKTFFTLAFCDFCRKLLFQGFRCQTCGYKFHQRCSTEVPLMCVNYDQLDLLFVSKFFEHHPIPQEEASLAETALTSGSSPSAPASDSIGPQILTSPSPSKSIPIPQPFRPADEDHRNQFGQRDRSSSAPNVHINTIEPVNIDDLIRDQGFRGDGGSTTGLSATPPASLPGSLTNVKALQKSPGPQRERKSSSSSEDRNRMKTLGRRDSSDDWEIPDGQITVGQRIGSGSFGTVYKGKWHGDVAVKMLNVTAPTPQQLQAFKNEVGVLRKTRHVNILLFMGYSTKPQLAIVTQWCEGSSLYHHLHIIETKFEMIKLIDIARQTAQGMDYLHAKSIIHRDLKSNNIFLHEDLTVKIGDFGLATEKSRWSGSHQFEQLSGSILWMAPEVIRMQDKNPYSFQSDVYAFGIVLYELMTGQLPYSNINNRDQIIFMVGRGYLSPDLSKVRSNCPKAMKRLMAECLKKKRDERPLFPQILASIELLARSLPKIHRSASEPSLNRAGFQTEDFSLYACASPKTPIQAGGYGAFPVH

With `CNc1ncc2cc(-c3c(C)ccc4c(Nc5cccc(C(C)C)c5)nccc34)ccc2n1` [Example 26, N-methyl-6-(6-methyl-1-((3-(1-methylethyl)phenyl)amino)-5-isoquinolinyl)-2-quinazolinamine], the 50% inhibitory concentration (IC50) is at most 250 nM in assay [1] and at most 500 nM in assay [2] (threshold list).
The corresponding values for `CNc1ncc2cc(-c3c(C)ccc4c(Nc5cc(C(C)(C)C)on5)nccc34)ccc2n1` [Example 27, 6-(1-((5-(1,1-dimethylethyl)-3-isoxazolyl)amino)-6-methyl-5-isoquinolinyl)-N-methyl-2-quinazolinamine] are at most 250 nM and at most 500 nM.
Consider `CNc1ncc2cc(-c3c(C)ccc4c(Nc5cccc(C(C)(C)C)c5)nccc34)ccc2n1` [Example 28, 6-(1-((3-(1,1-dimethylethyl)phenyl)amino)-6-methyl-5-isoquinolinyl)-N-methyl-2-quinazolinamine], for which the half-inhibitory concentration (IC50) is at most 250 nM in assay [1] and at most 500 nM in assay [2] (threshold list).
Regarding `CNc1ncc2cc(-c3c(C)ccc4c(Nc5cccc(Cl)c5)nccc34)ccc2n1` [Example 29, 6-(1-((3-chlorophenyl)amino)-6-methyl-5-isoquinolinyl)-N-methyl-2-quinazolinamine], the IC50 in assay [1] was at most 250 nM; in assay [2] (threshold list), at most 500 nM.
The corresponding values for `CNc1ncc2cc(-c3c(C)ccc4c(Nc5cccc(C#N)c5)nccc34)ccc2n1` [Example 30, 3-((6-methyl-5-(2-(methylamino)-6-quinazolinyl)-1-isoquinolinyl)amino)benzonitrile] are at most 250 nM and at most 500 nM.
With `CNc1ncc2cc(-c3c(C)ccc4c(Nc5cccc(OC(F)(F)F)c5)nccc34)ccc2n1` [Example 32, N-methyl-6-(6-methyl-1-((3-((trifluoromethyl)oxy)phenyl)amino)-5-isoquinolinyl)-2-quinazolinamine], the 50% inhibitory concentration (IC50) in assay [1] was at most 250 nM; in assay [2] (threshold list), at most 500 nM.
Take `CNc1ncc2cc(-c3c(C)ccc4c(Nc5ccc6c(c5)N(C(C)=O)CC6(C)C)nccc34)ccc2n1` [Example 33, 6-(1-((1-acetyl-3,3-dimethyl-2,3-dihydro-1H-indol-6-yl)amino)-6-methyl-5-isoquinolinyl)-N-methyl-2-quinazolinamine]: the IC50 in assay [1] is at most 250 nM; in assay [2] (threshold list), at most 500 nM.
On the same counts, the results for `CNc1ncc2cc(-c3c(C)ccc4c(Nc5cc(C(F)(F)F)ccn5)nccc34)ccc2n1` [Example 34, N-methyl-6-(6-methyl-1-((4-(trifluoromethyl)-2-pyridinyl)amino)-5-isoquinolinyl)-2-quinazolinamine] are at most 250 nM and at most 500 nM.
On the same counts, the results for `CNc1ncc2cc(-c3c(C)ccc4c(Nc5ccc(OC)c(C(F)(F)F)c5)nccc34)ccc2n1` [Example 35, N-methyl-6-(6-methyl-1-((4-(methyloxy)-3-(trifluoromethyl)phenyl)amino)-5-isoquinolinyl)-2-quinazolinamine] are at most 250 nM and at most 500 nM.
On the same counts, the results for `CNc1ncc2cc(-c3c(C)ccc4c(Nc5nnc(C6CC6)s5)nccc34)ccc2n1` [Example 36, 6-(1-((5-cyclopropyl-1,3,4-thiadiazol-2-yl)amino)-6-methyl-5-isoquinolinyl)-N-methyl-2-quinazolinamine] are at most 250 nM and at most 500 nM.
`CNc1ncc2cc(-c3c(C)ccc4c(Nc5ccc6[nH]ncc6c5)nccc34)ccc2n1` [Example 37, 6-(1-(1H-indazol-5-ylamino)-6-methyl-5-isoquinolinyl)-N-methyl-2-quinazolinamine]: the IC50 in assay [1] is at most 250 nM; in assay [2] (threshold list) it was at most 500 nM.
For `CNc1ncc2cc(-c3c(C)ccc4c(Nc5ccc6c(c5)CCC6)nccc34)ccc2n1` [Example 38, 6-(1-(2,3-dihydro-1H-inden-5-ylamino)-6-methyl-5-isoquinolinyl)-N-methyl-2-quinazolinamine], the half-maximal inhibitory concentration (IC50) in assay [1] was at most 250 nM; in assay [2] (threshold list), at most 500 nM.
On the same counts, the results for `CNc1ncc2cc(-c3c(C)ccc4c(Nc5ccc6sc(C)nc6c5)nccc34)ccc2n1` [Example 39, N-methyl-6-(6-methyl-1-((2-methyl-1,3-benzothiazol-5-yl)amino)-5-isoquinolinyl)-2-quinazolinamine] are at most 250 nM and at most 500 nM.
As to `CNc1ncc2cc(-c3c(C)ccc4c(Nc5ccc(F)c(OC(C)C)c5)nccc34)ccc2n1` [Example 40, 6-(1-((4-fluoro-3-((1-methylethyl)oxy)phenyl)amino)-6-methyl-5-isoquinolinyl)-N-methyl-2-quinazolinamine], the half-maximal inhibitory concentration (IC50) in assay [1] is at most 250 nM; in assay [2] (threshold list), at most 500 nM.
For the molecule `CNc1ncc2cc(-c3c(C)ccc4c(Nc5cncc(C(F)(F)F)c5)nccc34)ccc2n1` [Example 41, N-methyl-6-(6-methyl-1-((5-(trifluoromethyl)-3-pyridinyl)amino)-5-isoquinolinyl)-2-quinazolinamine], the IC50 in assay [1] was at most 250 nM; in assay [2] (threshold list), at most 500 nM.
On the same counts, the results for `CNc1ncc2cc(-c3c(C)ccc4c(Nc5cccc(OC(F)(F)F)c5)ncnc34)ccc2n1` [Example 50, N^2,7′-dimethyl-N^4′-(3-((trifluoromethyl)oxy)phenyl)-6,8′-biquinazoline-2,4′-diamine] are at most 250 nM and at most 500 nM.
With `CNc1ncc2cc(-c3c(C)ccc4c(Nc5cccc(C(F)(F)F)c5)ncnc34)ccc2n1` [Example 51, N^2,7′-dimethyl-N^4′-(3-(trifluoromethyl)phenyl)-6,8′-biquinazoline-2,4′-diamine], the values for the concentration for half-maximal inhibition (IC50) in assay [1] and in assay [2] (threshold list) were at most 250 nM and at most 500 nM, respectively.
On the same counts, the results for `CNc1ncc2cc(-c3c(C)ccc4c(Nc5ccc(OC)c(C(F)(F)F)c5)ncnc34)ccc2n1` [Example 52, N^2,7′-dimethyl-N^4′-(4-(methyloxy)-3-(trifluoromethyl)phenyl)-6,8′-biquinazoline-2,4′-diamine] are at most 250 nM and at most 500 nM.
On the same counts, the results for `CNc1ncc2cc(-c3c(C)ccc4c(Nc5cc(C(C)(C)C)nn5C)ncnc34)ccc2n1` [Example 53, N^4′-(3-(1,1-dimethylethyl)-1-methyl-1H-pyrazol-5-yl)-N^2,7′-dimethyl-6,8′-biquinazoline-2,4′-diamine] are at most 250 nM and at most 500 nM.
`CNc1ncc2cc(-c3c(C)ccc4c(Nc5ccc6c(c5)N(C(C)=O)CC6(C)C)ncnc34)ccc2n1` [Example 54, N^4′-(1-acetyl-3,3-dimethyl-2,3-dihydro-1H-indol-6-yl)-N^2,7′-dimethyl-6,8′-biquinazoline-2,4′-diamine]: the concentration for half-maximal inhibition (IC50) in assay [1] was at most 250 nM; in assay [2] (threshold list), at most 500 nM.
On the same counts, the results for `CNc1ncc2cc(-c3c(C)ccc4c(Nc5ccc(Cl)c(C(F)(F)F)c5)ncnc34)ccc2n1` [Example 55, N^4′-(4-chloro-3-(trifluoromethyl)phenyl)-N^2,7′-dimethyl-6,8′-biquinazoline-2,4′-diamine] are at most 250 nM and at most 500 nM.
The corresponding values for `CNc1ncc2cc(-c3c(C)ccc4c(Nc5cncc(C(F)(F)F)c5)ncnc34)ccc2n1` [Example 56, N^2,7′-dimethyl-N^4′-(5-(trifluoromethyl)-3-pyridinyl)-6,8′-biquinazoline-2,4′-diamine] are at most 250 nM and at most 500 nM.
For `CNc1ncc2cc(-c3c(C)ccc4c(NC5CCC(C(C)(C)C)CC5)ncnc34)ccc2n1` (stereo not shown) [Example 57, N^4′-(4-(1,1-dimethylethyl)cyclohexyl)-N^2,7′-dimethyl-6,8′-biquinazoline-2,4′-diamine], the half-inhibitory concentration (IC50) in assay [1] is at most 250 nM; in assay [2] (threshold list), at most 500 nM; in assay [2] (threshold lists), at most 1000 nM.
Turning to `CNc1ncc2cc(-c3c(C)ccc4c(Nc5ccc6sc(C)nc6c5)ncnc34)ccc2n1` [Example 58, N^2,7′-dimethyl-N^4′-(2-methyl-1,3-benzothiazol-5-yl)-6,8′-biquinazoline-2,4′-diamine], the values for the IC50 in assay [1], in assay [2] (threshold list) and in assay [2] (threshold lists) were at most 250 nM, at most 500 nM and at most 1000 nM, respectively.
As to `CNc1ncc2cc(-c3c(C)ccc4c(Nc5cccc(C(F)(F)F)c5)nn(C)c34)ccc2n1` [Example 63, 6-(1,6-dimethyl-3-((3-(trifluoromethyl)phenyl)amino)-1H-indazol-7-yl)-N-methyl-2-quinazolinamine], the figures for the half-inhibitory concentration (IC50) in assay [1] and in assay [2] (threshold list) were at most 250 nM and at most 500 nM, respectively.
